Laboratory results published in ChEMBL document CHEMBL2021911 (Bioorg Med Chem Lett, 2012).

Experiments:
[1] = biological target: T1, Muscarinic acetylcholine receptor M1 (Homo sapiens, UniProt P11229); assay: Agonist activity at human muscarinic M1 receptor; format: functional
T1 sequence (P11229 whole entry): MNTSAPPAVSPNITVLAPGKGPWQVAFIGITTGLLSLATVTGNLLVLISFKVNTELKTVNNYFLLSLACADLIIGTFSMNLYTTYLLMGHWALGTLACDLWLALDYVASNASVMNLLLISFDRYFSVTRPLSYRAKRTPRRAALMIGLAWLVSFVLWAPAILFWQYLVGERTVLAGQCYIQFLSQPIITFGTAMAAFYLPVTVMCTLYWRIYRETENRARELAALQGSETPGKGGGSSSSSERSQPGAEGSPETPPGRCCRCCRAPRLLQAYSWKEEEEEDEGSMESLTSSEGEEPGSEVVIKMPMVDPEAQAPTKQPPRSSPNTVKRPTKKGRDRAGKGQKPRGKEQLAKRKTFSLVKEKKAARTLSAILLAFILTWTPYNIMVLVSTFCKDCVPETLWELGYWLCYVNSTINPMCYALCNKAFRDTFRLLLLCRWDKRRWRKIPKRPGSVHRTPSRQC

[2] = biological target: T2, Muscarinic acetylcholine receptor M1 (Homo sapiens) (UniProt P11229); assay: Agonist activity at human muscarinic M1 receptor at 30 uM relative to acetylcholine; format: functional
T2 sequence (whole entry): T1 sequence (P11229 whole entry)

EC50 [1]	SMILES	Activity [2] [%]	EC50 ([1]; read-out: EC50) [nM]
Not Active	CCC(=O)N1[C@@H]2CC[C@H]1C[C@H](NCCNC(=O)c1ccccc1)C2	–	–
–	CCOC(=O)N1[C@@H]2CC[C@H]1C[C@H](NCCNC(=O)c1ccncc1)C2	6	> 10000
–	CCOC(=O)N1[C@@H]2CC[C@H]1C[C@H](NCCNC(=O)N1[C@H](C)CCC[C@@H]1C)C2	39	2500
–	CCOC(=O)N1[C@@H]2CC[C@H]1C[C@H](NCCNC(=O)c1ccccc1Cl)C2	37	2300
–	CCOC(=O)N1C[C@H]2CC[C@@H](C1)[C@H]2NCCNC(=O)N1CCOCC1	11	> 10000
–	CCOC(=O)N1C2CCC1CC(N1CCC[C@H](NC(=O)c3ccccc3)C1)C2 (mixture of isomers)	12	> 10000
–	CCOC(=O)N1C[C@H]2CC[C@@H](C1)[C@H]2NCCNC(=O)c1cc(F)cc(F)c1	53	200
–	C=CCOC(=O)N1[C@@H]2CC[C@H]1C[C@H](NCCNC(=O)c1ccccc1)C2	40	2000
Not Active	CCOC(=O)N1[C@@H]2CC[C@H]1C[C@H](NCCNC(=O)c1ccccc1C(F)(F)F)C2	–	–
–	CCOC(=O)N1[C@@H]2CC[C@H]1C[C@H](NCCNC(=O)c1ccc(F)c(F)c1)C2	50	810
–	CCOC(=O)N1C2CCC1CC(N1CCC[C@H](NC(=O)c3ccccc3C)C1)C2 (mixture of isomers)	52	2100
–	O=C(NCCN[C@@H]1C[C@H]2CC[C@@H](C1)N2C(=O)OCc1ccccc1)c1ccccc1	7	> 10000
–	CCOC(=O)N1CC[C@H]2[C@H](CCCN2CCNC(=O)c2ccccc2)C1 (relative stereo)	13	1200
Not Active	CS(=O)(=O)N1[C@@H]2CC[C@H]1C[C@H](NCCNC(=O)c1ccccc1)C2	–	–
–	CCOC(=O)N1[C@@H]2CC[C@H]1C[C@H](NCCNC(=O)N1CCCC1)C2	11	> 10000
–	CCOC(=O)N1[C@@H]2CC[C@H]1C[C@H](NCCNC(=O)c1cc(F)cc(F)c1)C2	43	1900
–	CCOC(=O)N1C[C@H]2CC[C@@H](C1)[C@H]2NCCNC(=O)c1cccs1	54	170
–	CCOC(=O)N1C[C@H]2CC[C@@H](C1)[C@H]2NCCNC(=O)c1ccccc1C	51	170
–	CCOC(=O)N1C2CCC1CC(N1CC[C@H](NC(=O)c3ccccc3C)C1)C2 (mixture of isomers)	22	> 10000
–	CCOC(=O)N1C[C@@H]2C(NCCNC(=O)c3ccccc3C)[C@@H]2C1 (stereo partly specified)	60	4100
Not Active	CCOC(=O)N1[C@@H]2CC[C@H]1C[C@H](NCCNC(=O)c1ccc[nH]1)C2	–	–
Not Active	CN(C)C(=O)N1[C@@H]2CC[C@H]1C[C@H](NCCNC(=O)c1ccccc1)C2	–	–
–	CCOC(=O)N1[C@@H]2CC[C@H]1C[C@H](NCCNC(=O)c1ccccc1C)C2	47	1100
–	CCOC(=O)N1C[C@H]2CC[C@@H](C1)[C@H]2NCCNC(=O)N1CCCCC1	9	690

EC50 [1]	SMILES	Activity [2] [%]	EC50 ([1]; read-out: EC50) [nM]
Not Active	CCCC(=O)N1[C@@H]2CC[C@H]1C[C@H](NCCNC(=O)c1ccccc1)C2	–	–
–	CCOC(=O)N1[C@@H]2CC[C@H]1C[C@H](NCCNC(=O)C1CCCCC1)C2	34	1500
–	CCOC(=O)N1CC[C@H]2[C@@H](CCCN2CCNC(=O)c2ccccc2)C1 (relative stereo)	13	3200
–	CCOC(=O)N1CCC(N2CCC[C@@H](NC(=O)c3ccccc3C)C2)CC1	71	890
–	CCOC(=O)N1C2CCC1CC(N1CC(NC(=O)c3ccccc3)C1)C2 (mixture of isomers)	34	2200
Not Active	CCS(=O)(=O)N1[C@@H]2CC[C@H]1C[C@H](NCCNC(=O)c1ccccc1)C2	–	–
Not Active	CCOC(=O)N1[C@@H]2CC[C@H]1C[C@H](NCCNS(=O)(=O)c1cccc(OC)c1)C2	–	–
–	CC(C)C(=O)N1[C@@H]2CC[C@H]1C[C@H](NCCNC(=O)c1ccccc1)C2	23	5400
–	CCOC(=O)N1[C@@H]2CC[C@H]1C[C@H](NCCNC(=O)c1cccc(Cl)c1)C2	63	440
Not Active	CCOC(=O)N1[C@@H]2CC[C@H]1C[C@H](NCCNC(=O)NC1CC1)C2	–	–
–	CCOC(=O)N1[C@@H]2CC[C@H]1C[C@H](NCCNC(=O)c1cccc(OC)c1)C2	33	3600
–	CCOC(=O)N1[C@@H]2CC[C@H]1CC(NCCNC(=O)c1ccc(C)c(F)c1)C2 (mixture of isomers)	40	470
–	CCOC(=O)N1C2CCC1CC(N1CC[C@@H](NC(=O)c3ccccc3)C1)C2 (mixture of isomers)	62	320
–	CCOC(=O)N1[C@@H]2CC[C@H]1C[C@H](NCCNC(=O)N1CCOCC1)C2	44	2000
–	CCOC(=O)N1C[C@H]2CC[C@@H](C1)[C@H]2NCCNC(=O)C1CCCCC1	37	1000
–	COC(=O)N1[C@@H]2CC[C@H]1C[C@H](NCCNC(=O)c1ccccc1)C2	21	> 10000
–	CCOC(=O)N1C2CCC1CC(N1CC[C@H](NC(=O)c3ccccc3)C1)C2 (mixture of isomers)	39	1200
–	CCOC(=O)N1[C@@H]2CC[C@H]1C[C@H](NCCNC(=O)c1cccs1)C2	33	1000
–	CCOC(=O)N1C2CCC1CC(N1CC[C@@H](NC(=O)c3ccccc3C)C1)C2 (mixture of isomers)	55	1200
–	CCOC(=O)N1C[C@H]2CC[C@@H](C1)[C@H]2NCCNC(=O)c1cccc(OC)c1	47	240
–	COC(=O)C12CCC(NCCNC(=O)c3ccccc3)(CC1)CC2	18	6200
–	CCOC(=O)N1[C@@H]2CC[C@H]1C[C@H](NCCNC(=O)N1CCCCC1)C2	53	570
–	CCOC(=O)N1[C@@H]2CC[C@H]1C[C@H](NCCNC(=O)c1ccc(F)cc1)C2	54	830

SMILES	EC50 [1]	Activity [2] [%]	EC50 ([1]; read-out: EC50) [nM]
O=C(NCCN[C@@H]1C[C@H]2CC[C@@H](C1)N2C(=O)Oc1ccccc1)c1ccccc1	Not Active	–	–
